Results as given in patent US20250145609A1, “3-SUBSTITUTED PYRIDAZINE COMPOUNDS AS SMARCA2 AND/OR SMARCA4 DEGRADERS” (Aurigene Oncology Limited, priority 2022, published 2025).

Columns and labels:
SMARCA4 = target: T1, SMARCA4 (Homo sapiens, UniProt P51532); experiment: SMARCA4 degradation in VCaP cells by Western blot; assay type: cell-based; details: at 100 nM; for Percent SMARCA4 degradation at 0.1 µM: VCaP, 16 h; for Percent degradation SMARCA4: 16 hours
T1 construct: endogenous in cells; host or cells: VCaP (ATCC CRL-2876)
Experimental: (§1) Example-P2: Determination of SMARCA2 and SMARCA4 Degradation in VCaP Cells by Western Blot
(§2) VCaP (ATCC CRL-2876) was plated in 6 well plates using complete Dulbecco's Modified Eagle's Medium. On the third day, compounds of present invention were added to cells from 10 mM stocks made in DMSO (Sigma Cat no. D2650). Each compound was tested at 100 nM concentration with DMSO not exceeding final percentage of 0.3 in the cells. Cells were incubated with the compound for 16 hours followed by harvesting with 1×RIPA lysis buffer (Thermo Fischer, catalogue number #89900) containing protease inhibitor cocktail (Sigma catalogue number #P-8340). Equal amount of protein was loaded on SDS PAGE gel for electrophoresis. Western blot was carried out for detection of either SMARCA2 (Cell signalling technologies, catalogue number #11966) or SMARCA4 antibody (Cell signalling technologies, catalogue number #52251). Beta-Tubulin antibody (Cell signalling technologies, catalogue number #86298) was used as loading control. Percentage of SMARCA2 or SMARCA4 degradation was calculated by using formula: […]

SMARCA2 = target: T2, SMARCA2 (Homo sapiens, UniProt P51531); experiment: SMARCA2 degradation in VCaP cells by Western blot; assay type: cell-based; details: at 100 nM, 16 hours
T2 construct: endogenous in cells; host or cells: VCaP (ATCC CRL-2876)
Experimental: as §1, §2

T1 sequence (P51532 whole entry): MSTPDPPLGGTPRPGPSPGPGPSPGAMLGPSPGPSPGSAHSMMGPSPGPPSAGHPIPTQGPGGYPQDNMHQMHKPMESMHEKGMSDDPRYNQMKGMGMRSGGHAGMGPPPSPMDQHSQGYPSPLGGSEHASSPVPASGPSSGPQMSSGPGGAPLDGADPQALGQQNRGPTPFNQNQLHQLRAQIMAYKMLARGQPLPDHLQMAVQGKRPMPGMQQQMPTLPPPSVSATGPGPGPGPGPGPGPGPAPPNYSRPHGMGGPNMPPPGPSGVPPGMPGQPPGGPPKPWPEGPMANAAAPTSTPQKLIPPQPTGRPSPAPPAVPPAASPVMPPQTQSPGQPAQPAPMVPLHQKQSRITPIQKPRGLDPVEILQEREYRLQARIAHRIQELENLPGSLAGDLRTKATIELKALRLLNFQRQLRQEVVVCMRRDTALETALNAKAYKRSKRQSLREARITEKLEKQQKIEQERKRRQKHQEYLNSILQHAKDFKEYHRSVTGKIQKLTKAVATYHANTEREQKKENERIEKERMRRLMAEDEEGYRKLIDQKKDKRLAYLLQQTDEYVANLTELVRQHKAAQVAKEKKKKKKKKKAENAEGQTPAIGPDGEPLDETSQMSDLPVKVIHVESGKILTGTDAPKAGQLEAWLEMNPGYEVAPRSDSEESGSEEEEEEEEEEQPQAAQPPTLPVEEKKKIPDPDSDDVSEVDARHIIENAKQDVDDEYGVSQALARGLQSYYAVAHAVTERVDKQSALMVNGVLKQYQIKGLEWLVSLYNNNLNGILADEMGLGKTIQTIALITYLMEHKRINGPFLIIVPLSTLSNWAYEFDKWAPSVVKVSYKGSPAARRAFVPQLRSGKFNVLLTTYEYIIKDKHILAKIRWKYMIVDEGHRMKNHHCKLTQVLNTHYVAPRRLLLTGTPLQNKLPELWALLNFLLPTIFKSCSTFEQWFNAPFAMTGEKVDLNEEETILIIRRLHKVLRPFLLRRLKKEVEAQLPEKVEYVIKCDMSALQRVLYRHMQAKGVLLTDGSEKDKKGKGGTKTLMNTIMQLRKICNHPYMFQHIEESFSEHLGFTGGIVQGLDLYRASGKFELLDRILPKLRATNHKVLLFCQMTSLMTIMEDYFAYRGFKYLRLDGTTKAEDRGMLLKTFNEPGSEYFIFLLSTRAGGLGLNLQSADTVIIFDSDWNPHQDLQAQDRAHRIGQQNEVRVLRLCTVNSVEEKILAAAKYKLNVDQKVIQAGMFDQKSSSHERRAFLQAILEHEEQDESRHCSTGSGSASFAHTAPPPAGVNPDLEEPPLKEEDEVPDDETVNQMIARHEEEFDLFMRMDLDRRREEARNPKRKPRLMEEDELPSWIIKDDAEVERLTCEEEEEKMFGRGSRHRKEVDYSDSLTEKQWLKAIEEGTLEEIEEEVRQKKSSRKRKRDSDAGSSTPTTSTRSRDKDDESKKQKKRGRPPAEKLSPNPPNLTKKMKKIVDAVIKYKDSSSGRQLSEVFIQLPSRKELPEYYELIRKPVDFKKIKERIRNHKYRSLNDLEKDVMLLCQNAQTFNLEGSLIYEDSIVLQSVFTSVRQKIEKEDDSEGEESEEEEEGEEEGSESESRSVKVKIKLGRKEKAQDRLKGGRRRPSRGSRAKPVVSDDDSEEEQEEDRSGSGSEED
T2 sequence (P51531 whole entry): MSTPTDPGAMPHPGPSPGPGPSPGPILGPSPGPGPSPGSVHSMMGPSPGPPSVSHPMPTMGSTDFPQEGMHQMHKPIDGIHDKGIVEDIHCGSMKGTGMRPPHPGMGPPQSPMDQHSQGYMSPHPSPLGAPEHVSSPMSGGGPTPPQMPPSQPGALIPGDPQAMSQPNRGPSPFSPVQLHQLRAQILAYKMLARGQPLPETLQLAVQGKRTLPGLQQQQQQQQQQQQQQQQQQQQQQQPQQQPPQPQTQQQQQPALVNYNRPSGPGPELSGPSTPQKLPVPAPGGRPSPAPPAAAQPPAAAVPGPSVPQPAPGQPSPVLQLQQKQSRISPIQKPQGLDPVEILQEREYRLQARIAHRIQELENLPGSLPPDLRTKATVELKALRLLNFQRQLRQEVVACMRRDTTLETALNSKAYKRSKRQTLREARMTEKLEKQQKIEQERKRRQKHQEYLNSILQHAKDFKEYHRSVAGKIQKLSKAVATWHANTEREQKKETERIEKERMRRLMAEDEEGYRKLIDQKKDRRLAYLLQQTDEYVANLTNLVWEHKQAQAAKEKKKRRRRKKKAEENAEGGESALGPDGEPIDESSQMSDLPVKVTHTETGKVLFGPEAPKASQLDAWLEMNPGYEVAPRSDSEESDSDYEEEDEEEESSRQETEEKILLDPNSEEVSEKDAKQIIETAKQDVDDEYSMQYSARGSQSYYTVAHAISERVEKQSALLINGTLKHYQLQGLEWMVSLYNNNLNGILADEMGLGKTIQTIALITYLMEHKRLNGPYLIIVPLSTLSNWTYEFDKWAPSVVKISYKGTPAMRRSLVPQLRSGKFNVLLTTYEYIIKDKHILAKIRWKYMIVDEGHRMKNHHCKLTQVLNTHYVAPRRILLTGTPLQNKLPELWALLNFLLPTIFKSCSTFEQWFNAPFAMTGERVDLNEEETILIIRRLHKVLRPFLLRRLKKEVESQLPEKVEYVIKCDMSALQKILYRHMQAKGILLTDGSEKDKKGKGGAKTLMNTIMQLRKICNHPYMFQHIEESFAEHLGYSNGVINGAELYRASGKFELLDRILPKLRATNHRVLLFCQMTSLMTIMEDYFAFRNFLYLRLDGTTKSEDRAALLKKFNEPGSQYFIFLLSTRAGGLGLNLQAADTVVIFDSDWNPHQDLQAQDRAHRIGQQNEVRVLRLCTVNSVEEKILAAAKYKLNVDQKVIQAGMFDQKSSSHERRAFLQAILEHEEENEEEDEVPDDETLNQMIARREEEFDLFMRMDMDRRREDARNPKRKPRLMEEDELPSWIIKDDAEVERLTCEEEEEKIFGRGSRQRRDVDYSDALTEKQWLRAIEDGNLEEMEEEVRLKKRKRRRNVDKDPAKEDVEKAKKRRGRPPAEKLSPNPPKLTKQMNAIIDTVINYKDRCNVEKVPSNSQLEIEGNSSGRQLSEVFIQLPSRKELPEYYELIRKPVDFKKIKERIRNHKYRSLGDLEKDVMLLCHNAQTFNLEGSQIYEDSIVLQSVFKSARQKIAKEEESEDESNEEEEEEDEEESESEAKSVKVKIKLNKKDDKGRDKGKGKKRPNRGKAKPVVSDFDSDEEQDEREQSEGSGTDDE

SMILES	Percent SMARCA4 degradation at 0.1 µM (SMARCA4) [%]	Percent degradation SMARCA2 (SMARCA2) [%]	Percent degradation SMARCA4 (SMARCA4) [%]
Cc1ncsc1-c1ccc([C@H](C)NC(=O)[C@@H]2C[C@@H](O)CN2C(=O)[C@@H](NC(=O)CN2CCC(c3cccc(-c4cc(-c5ccccc5O)nnc4N)c3)CC2)C(C)(C)C)cc1 [Compound 46, (2S,4R)-1-((S)-2-(2-(4-(3-(3-amino-6-(2-hydroxyphenyl)pyridazin-4-yl)phenyl)piperidin-1-yl)acetamido)-3,3-dimethylbutanoyl)-4-hydroxy-N-((S)-1-(4-(4-methylthiazol-5-yl)phenyl)ethyl)pyrrolidine-2-carboxamide]	96	98	–
Cc1ncsc1-c1ccc([C@H](C)NC(=O)[C@@H]2C[C@@H](O)CN2C(=O)[C@@H](NC(=O)CN2CCC(Nc3ccc(-c4cc(-c5ccccc5O)nnc4N)cc3)CC2)C(C)(C)C)cc1 [Compound 54, (2S,4R)-1-((S)-2-(2-(4-((4-(3-amino-6-(2-hydroxyphenyl)pyridazin-4-yl)phenyl)amino)piperidin-1-yl)acetamido)-3,3-dimethylbutanoyl)-4-hydroxy-N—((S)-1-(4-(4-methylthiazol-5-yl)phenyl)ethyl)pyrrolidine-2-carboxamide]	97	99	–
Cc1ncsc1-c1ccc([C@H](C)NC(=O)[C@@H]2C[C@@H](O)CN2C(=O)[C@@H](NC(=O)CN2CCN(c3ccc(-c4cc(-c5ccccc5F)nnc4N)cc3)CC2)C(C)(C)C)cc1 [Compound 27, (2S,4R)-1-((S)-2-(2-(4-(4-(3-amino-6-(2-fluorophenyl)pyridazin-4-yl)phenyl)piperazin-1-yl)acetamido)-3,3-dimethylbutanoyl)-4-hydroxy-N—((S)-1-(4-(4-methylthiazol-5-yl)phenyl)ethyl)pyrrolidine-2-carboxamide]	47	59	–
COc1ncccc1-c1cc(-c2ccc(N3CCN(CC(=O)N[C@H](C(=O)N4C[C@H](O)C[C@H]4C(=O)N[C@@H](C)c4ccc(-c5scnc5C)cc4)C(C)(C)C)CC3)cc2)c(N)nn1 [Compound 15, (2S,4R)-1-((S)-2-(2-(4-(4-(3-amino-6-(2-methoxypyridin-3-yl)pyridazin-4-yl)phenyl)piperazin-1-yl)acetamido)-3,3-dimethylbutanoyl)-4-hydroxy-N—((S)-1-(4-(4-methylthiazol-5-yl)phenyl)ethyl)pyrrolidine-2-carboxamide]	16	8	–
Cc1ncsc1-c1ccc([C@H](C)NC(=O)[C@@H]2C[C@@H](O)CN2C(=O)[C@@H](NC(=O)CC2CCC(c3ccc(-c4cc(-c5ccccc5O)nnc4N)cc3)CC2)C(C)(C)C)cc1 (single isomer, unassigned) [Compound 45]	–	97	92
Cc1ncsc1-c1ccc([C@H](C)NC(=O)[C@@H]2C[C@@H](O)CN2C(=O)[C@H](c2cc(-c3ccc(-c4cc(-c5ccccc5O)nnc4N)cc3)no2)C(C)C)cc1 [Compound 5, (2S,4R)-1-((S)-2-(3-(4-(3-amino-6-(2-hydroxyphenyl)pyridazin-4-yl)phenyl)isoxazol-5-yl)-3-methylbutanoyl)-4-hydroxy-N—((S)-1-(4-(4-methylthiazol-5-yl)phenyl)ethyl)pyrrolidine-2-carboxamide]	62	57	–
Cc1ncsc1-c1ccc([C@H](C)NC(=O)[C@@H]2C[C@@H](O)CN2C(=O)[C@@H](NC(=O)C(C)N2CCC(c3ccc(-c4cc(-c5ccccc5O)nnc4N)cc3)CC2)C(C)(C)C)cc1 (single isomer, unassigned) [Compound 33]	0	42	–
Cc1ncsc1-c1ccc([C@H](C)NC(=O)[C@@H]2C[C@@H](O)CN2C(=O)C(c2cc(-c3ccc(-c4cc(-c5ccccc5O)nnc4N)cc3)no2)C(C)C)cc1 (stereo partly drawn) [Compound 4, (2S,4R)-1-(2-(3-(4-(3-amino-6-(2-hydroxyphenyl)pyridazin-4-yl)phenyl)isoxazol-5-yl)-3-methylbutanoyl)-4-hydroxy-N—((S)-1-(4-(4-methylthiazol-5-yl)phenyl)ethyl)pyrrolidine-2-carboxamide]	11	98	–
Cc1ncsc1-c1ccc([C@H](C)NC(=O)[C@@H]2C[C@@H](O)CN2C(=O)[C@@H](NC(=O)CC#Cc2ccc(-c3cc(Cl)nnc3N)cc2)C(C)(C)C)cc1 [Compound 22, (2S,4R)-1-((S)-2-(4-(4-(3-amino-6-chloropyridazin-4-yl)phenyl)but-3-ynamido)-3,3-dimethylbutanoyl)-4-hydroxy-N-((S)-1-(4-(4-methylthiazol-5-yl)phenyl)ethyl)pyrrolidine-2-carboxamide]	7	2	–
Cc1ncsc1-c1ccc([C@H](C)NC(=O)[C@@H]2C[C@@H](O)CN2C(=O)[C@@H](NC(=O)CCCC#Cc2ccc(-c3cc(-c4cc(F)ccc4O)nnc3N)cc2)C(C)(C)C)cc1 [Compound 23, (2S,4R)-1-((S)-2-(6-(4-(3-amino-6-(5-fluoro-2-hydroxyphenyl)pyridazin-4-yl)phenyl)hex-5-ynamido)-3,3-dimethylbutanoyl)-4-hydroxy-N-((S)-1-(4-(4-methylthiazol-5-yl)phenyl)ethyl)pyrrolidine-2-carboxamide]	49	82	–
Cc1ncsc1-c1ccc([C@H](C)NC(=O)[C@@H]2C[C@@H](O)CN2C(=O)[C@@H](NC(=O)CN2CCC(N(C)c3ccc(-c4cc(-c5ccccc5O)nnc4N)cc3)CC2)C(C)(C)C)cc1 [Compound 55, (2S,4R)-1-((S)-2-(2-(4-((4-(3-amino-6-(2-hydroxyphenyl)pyridazin-4-yl)phenyl)(methyl)amino)piperidin-1-yl)acetamido)-3,3-dimethylbutanoyl)-4-hydroxy-N—((S)-1-(4-(4-methylthiazol-5-yl)phenyl)ethyl)pyrrolidine-2-carboxamide]	71	99	–
Cc1ncsc1-c1ccc([C@H](C)NC(=O)[C@@H]2C[C@@H](O)CN2C(=O)[C@@H](NC(=O)C2CCN(c3ccc(-c4cc(-c5ccccc5O)nnc4N)cc3)CC2)C(C)(C)C)cc1 [Compound 47, 1-(4-(3-amino-6-(2-hydroxyphenyl)pyridazin-4-yl)phenyl)-N-((S)-1-((2S,4R)-4-hydroxy-2-(((S)-1-(4-(4-methylthiazol-5-yl)phenyl)ethyl)carbamoyl)pyrrolidin-1-yl)-3,3-dimethyl-1-oxobutan-2-yl)piperidine-4-carboxamide]	95	99	–
Cc1ncsc1-c1ccc([C@H](C)NC(=O)[C@@H]2C[C@@H](O)CN2C(=O)C(c2cc(-c3ccc(-c4cc(-c5ccc[nH]c5=O)nnc4N)cc3)no2)C(C)C)cc1 (stereo partly shown) [Compound 17]	–	7	35
Cc1ncsc1-c1ccc([C@H](C)NC(=O)[C@@H]2C[C@@H](O)CN2C(=O)[C@@H](NC(=O)Cn2cc(-c3ccc(-c4cc(-c5ccccc5O)nnc4N)cc3)cn2)C(C)(C)C)cc1 [Compound 49, (2S,4R)-1-((S)-2-(2-(4-(4-(3-amino-6-(2-hydroxyphenyl)pyridazin-4-yl)phenyl)-1H-pyrazol-1-yl)acetamido)-3,3-dimethylbutanoyl)-4-hydroxy-N-((S)-1-(4-(4-methylthiazol-5-yl)phenyl)ethyl)pyrrolidine-2-carboxamide]	0	66	–
Cc1ncsc1-c1ccc([C@H](C)NC(=O)[C@@H]2C[C@@H](O)CN2C(=O)[C@@H](NC(=O)CN2CCN(c3ccc(-c4cc(Cl)nnc4N)cc3)CC2)C(C)(C)C)cc1 [Compound 13, (2S,4R)-1-((S)-2-(2-(4-(4-(3-amino-6-chloropyridazin-4-yl)phenyl)piperazin-1-yl)acetamido)-3,3-dimethylbutanoyl)-4-hydroxy-N—((S)-1-(4-(4-methylthiazol-5-yl)phenyl)ethyl)pyrrolidine-2-carboxamide]	38	27	–
Cc1ncsc1-c1ccc([C@H](C)NC(=O)[C@@H]2C[C@@H](O)CN2C(=O)[C@@H](NC(=O)CN2CCC(c3ccc(-c4cc(-c5ccccc5O)nnc4N)cc3)CC2C)C(C)(C)C)cc1 (single isomer, unassigned) [Compound 37]	–	100	97
Cc1ncsc1-c1ccc([C@H](C)NC(=O)[C@@H]2C[C@@H](O)CN2C(=O)[C@@H](NC(=O)CCN2CCN(c3ccc(-c4cc(-c5ccccc5O)nnc4N)cc3)CC2)C(C)(C)C)cc1 [Compound 18, (2S,4R)-1-((S)-2-(3-(4-(4-(3-amino-6-(2-hydroxyphenyl)pyridazin-4-yl)phenyl)piperazin-1-yl)propanamido)-3,3-dimethylbutanoyl)-4-hydroxy-N—((S)-1-(4-(4-methylthiazol-5-yl)phenyl)ethyl)pyrrolidine-2-carboxamide]	93	98	–
